# Experimental data as given in patent US11925624B2, “Methods of administering anti-fibrotic therapy” (GENENTECH, INC., priority 2016, dated 2024).
# Tests used:
# [1] = Serum creatinine (Scr) change from baseline, MAD study (Part B); type: in vivo, human; conditions: for Number of subjects with change in Scr <0.3 mg/dL from baseline / Number of subjects with change in Scr ≥0.3 mg/dL from baseline / Number of subjects with percent change in Scr <30% from baseline / Number of subjects with percent change in Scr ≥30% from baseline: MAD
# Protocol: (§1) In addition to the measurement of various PK parameters in both parts of the study, the changes in the subjects' serum creatinine levels were also evaluated in this study. Tables 6A and 6B summarize the change in level and percent change in serum creatinine from averaged screening and pre-dosing values for the subjects in SAD study in each treatment group, as applicable. Tables 7A and 7B summarize the change in level and percent change in scrum creatinine from averaged screening and pre-dosing values for the subjects in MAD study. […] In Part B of the study, 2 subjects (275 mg BID) experienced clinically significant TEAEs of increased creatinine on day 5. The mean change in serum creatinine from a combined screening and pre-dose baseline in the MAD part of the study is illustrated in FIG. 1. In addition, the mean change in creatinine level from combined screening and pre-dose level in the MAD part of the study is illustrated in FIG. 2.
# [2] = Serum creatinine (Scr) change from baseline, SAD study (Part A); type: in vivo, human; conditions: for Number of subjects with change in Scr <0.3 mg/dL from baseline / Number of subjects with change in Scr ≥0.3 mg/dL from baseline / Number of subjects with percent change in Scr <30% from baseline / Number of subjects with percent change in Scr ≥30% from baseline: SAD
# Protocol: as §1
compound,measurement,setting,value
Cn1cc(-c2cn(-c3ccc(OC(F)(F)F)cc3)c(=O)c3ncn(C)c23)cn1 [Compound I],Subjects with mean change from baseline ≥0.3 mg/dL in Scr,"[1]; MAD study, all subjects",25%
same,Subjects with mean percent change from baseline ≥30% in Scr,"[1]; MAD study, all subjects",50%
same,Number of subjects with change in Scr <0.3 mg/dL from baseline,[1]; 400 mg (200 mg BID),5
same,Number of subjects with change in Scr ≥0.3 mg/dL from baseline,[1]; 400 mg (200 mg BID),1
same,Number of subjects with percent change in Scr <30% from baseline,[1]; 400 mg (200 mg BID),1
same,Number of subjects with percent change in Scr ≥30% from baseline,[1]; 400 mg (200 mg BID),5
same,Number of subjects with change in Scr <0.3 mg/dL from baseline,[1]; 525 mg,5
same,Number of subjects with change in Scr ≥0.3 mg/dL from baseline,[1]; 525 mg,1
same,Number of subjects with percent change in Scr <30% from baseline,[1]; 525 mg,3
same,Number of subjects with percent change in Scr ≥30% from baseline,[1]; 525 mg,3
same,Number of subjects with change in Scr <0.3 mg/dL from baseline,[1]; 550 mg (275 mg BID),2
same,Number of subjects with change in Scr ≥0.3 mg/dL from baseline,[1]; 550 mg (275 mg BID),4
same,Number of subjects with percent change in Scr <30% from baseline,[1]; 550 mg (275 mg BID),2
same,Number of subjects with percent change in Scr ≥30% from baseline,[1]; 550 mg (275 mg BID),4
same,Subjects with increases over the upper limit of normal (ULN) in serum creatinine,"[1]; Part B (MAD), across all dose levels",about 56%
same,Subjects with clinically significant TEAEs of increased creatinine,"[1]; Part B, 275 mg BID, day 5",2 subjects
same,Exposures with increases over the upper limit of normal (ULN) in serum creatinine,"[2]; Part A (SAD), exposures of doses of 200 mg or more",about 21%
same,Number of subjects with change in Scr <0.3 mg/dL from baseline,[2]; 25 mg,6
same,Number of subjects with change in Scr ≥0.3 mg/dL from baseline,[2]; 25 mg,0
same,Number of subjects with percent change in Scr <30% from baseline,[2]; 25 mg,6
same,Number of subjects with percent change in Scr ≥30% from baseline,[2]; 25 mg,0
same,Number of subjects with change in Scr <0.3 mg/dL from baseline,[2]; 75 mg,6
same,Number of subjects with change in Scr ≥0.3 mg/dL from baseline,[2]; 75 mg,0
same,Number of subjects with percent change in Scr <30% from baseline,[2]; 75 mg,6
same,Number of subjects with percent change in Scr ≥30% from baseline,[2]; 75 mg,0
same,Number of subjects with change in Scr <0.3 mg/dL from baseline,[2]; 200 mg,6
same,Number of subjects with change in Scr ≥0.3 mg/dL from baseline,[2]; 200 mg,0
same,Number of subjects with percent change in Scr <30% from baseline,[2]; 200 mg,6
same,Number of subjects with percent change in Scr ≥30% from baseline,[2]; 200 mg,0
same,Number of subjects with change in Scr <0.3 mg/dL from baseline,[2]; 400 mg Fasted,10
same,Number of subjects with change in Scr ≥0.3 mg/dL from baseline,[2]; 400 mg Fasted,2
same,Number of subjects with percent change in Scr <30% from baseline,[2]; 400 mg Fasted,9
same,Number of subjects with percent change in Scr ≥30% from baseline,[2]; 400 mg Fasted,3
same,Number of subjects with change in Scr <0.3 mg/dL from baseline,[2]; 800 mg Fasted,5
same,Number of subjects with change in Scr ≥0.3 mg/dL from baseline,[2]; 800 mg Fasted,1
same,Number of subjects with percent change in Scr <30% from baseline,[2]; 800 mg Fasted,4
same,Number of subjects with percent change in Scr ≥30% from baseline,[2]; 800 mg Fasted,2
same,Number of subjects with change in Scr <0.3 mg/dL from baseline,[2]; 1600 mg,6
same,Number of subjects with change in Scr ≥0.3 mg/dL from baseline,[2]; 1600 mg,0
same,Number of subjects with percent change in Scr <30% from baseline,[2]; 1600 mg,6
same,Number of subjects with percent change in Scr ≥30% from baseline,[2]; 1600 mg,0
